{
  "source": "paper PMC4188808",
  "about": "(Neuropharmacology, 2014)",
  "key": {"[1]": {"system": "N-methyl-D-aspartate receptor (NMDAR)", "parameters": "species or system Rattus norvegicus"}, "[2]": {"target": "NMDAR expressing GluN2B (NR2B) subunits (Rattus norvegicus, UniProt P35439+Q00960)", "sequence (Q00960 27-1482, other chains not shown)": "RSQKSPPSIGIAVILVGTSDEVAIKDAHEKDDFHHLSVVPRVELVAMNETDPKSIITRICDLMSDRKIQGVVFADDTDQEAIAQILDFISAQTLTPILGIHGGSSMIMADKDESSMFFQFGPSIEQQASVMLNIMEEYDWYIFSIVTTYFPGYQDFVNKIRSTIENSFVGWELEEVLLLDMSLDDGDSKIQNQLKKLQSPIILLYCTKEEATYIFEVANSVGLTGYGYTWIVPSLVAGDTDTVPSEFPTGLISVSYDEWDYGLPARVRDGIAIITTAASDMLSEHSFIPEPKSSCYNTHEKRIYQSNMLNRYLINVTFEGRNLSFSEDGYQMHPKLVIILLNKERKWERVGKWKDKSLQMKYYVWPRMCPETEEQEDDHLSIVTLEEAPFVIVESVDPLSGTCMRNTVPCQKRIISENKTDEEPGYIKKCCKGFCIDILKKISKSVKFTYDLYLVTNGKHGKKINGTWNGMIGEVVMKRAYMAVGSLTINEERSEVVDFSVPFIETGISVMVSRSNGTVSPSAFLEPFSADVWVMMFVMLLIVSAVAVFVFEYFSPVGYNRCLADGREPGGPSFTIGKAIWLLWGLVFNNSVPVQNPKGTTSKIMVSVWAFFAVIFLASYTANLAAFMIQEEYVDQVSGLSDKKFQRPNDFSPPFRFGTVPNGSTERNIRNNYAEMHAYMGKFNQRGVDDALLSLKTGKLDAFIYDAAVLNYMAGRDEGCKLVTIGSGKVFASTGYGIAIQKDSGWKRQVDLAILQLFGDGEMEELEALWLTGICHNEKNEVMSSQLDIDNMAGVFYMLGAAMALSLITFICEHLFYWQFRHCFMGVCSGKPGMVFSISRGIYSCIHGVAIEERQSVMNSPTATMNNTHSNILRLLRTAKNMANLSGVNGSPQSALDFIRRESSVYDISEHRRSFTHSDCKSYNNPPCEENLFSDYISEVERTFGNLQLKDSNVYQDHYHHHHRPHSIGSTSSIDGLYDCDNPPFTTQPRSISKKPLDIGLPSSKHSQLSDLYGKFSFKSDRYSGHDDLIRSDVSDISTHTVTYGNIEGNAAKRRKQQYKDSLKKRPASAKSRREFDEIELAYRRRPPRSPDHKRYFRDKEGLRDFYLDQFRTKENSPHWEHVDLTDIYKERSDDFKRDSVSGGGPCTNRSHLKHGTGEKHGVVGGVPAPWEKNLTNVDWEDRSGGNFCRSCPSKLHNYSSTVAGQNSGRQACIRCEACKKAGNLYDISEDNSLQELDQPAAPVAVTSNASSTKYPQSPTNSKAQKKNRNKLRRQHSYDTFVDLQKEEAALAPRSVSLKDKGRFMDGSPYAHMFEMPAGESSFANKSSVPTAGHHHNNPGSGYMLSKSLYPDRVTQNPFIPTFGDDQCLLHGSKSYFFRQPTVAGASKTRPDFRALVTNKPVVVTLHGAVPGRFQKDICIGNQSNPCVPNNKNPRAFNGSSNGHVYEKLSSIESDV", "assay_type": "cell-based"}},
  "data": [
    {"compound": "CNC1(c2ccccc2Cl)CCCCC1=O", "note": "(racemic) [ketamine]", "values": [
      {"measurement": "EC50", "setting": "[1]", "result": "~10", "unit": "µM"}
    ]},
    {"compound": "CC(C(O)c1ccc(O)cc1)N1CCC(Cc2ccccc2)CC1", "note": "(centres unmarked) [ifenprodil]", "values": [
      {"measurement": "% inhibition at 10 μM", "setting": "[2]", "result": "43.4 ± 7.3"}
    ]}
  ]
}
